# Like-named read-outs stand apart in the source and are kept apart here.
# Legend:
# [1] = Activity tests: necessary administration quantities; type: in vivo; conditions: Form: Free (oral); rats/mice
# Source text: (§1) Toxicity and Activity Tests
# [2] = tested on: Entamoeba histolytica HM-1:IMSS; assay: Cytotoxicity of alkylphosphocholines on amebae (Trypan blue count, Probit); type: cell-based; conditions: strain HM-1:IMSS, read-out: ED50 (the source's name)
# Protocol: (§2) Entamoeba histolytica SFL-3 and HM-1: IMSS (American Type Culture collection, order number ATCC 30459), pathogenic amebae of zymodeme II, were cultured, at 37° C., in TYI-S-33 medium (Diamond et al., Trans. Roy. Soc. Trop. Med. Hyg. 72: 431-432 (1978)) containing 10% bovine serum. The cultures of SFL-3 were kept in 100 ml glass bottles while the cultures of HM-1:IMSS were kept in 50 ml tissue culture flasks.
# (§3) 38 h cultures of E histolytica were used for measuring the cytotoxicity of the alkylphosphocholines. The amebae were released from the culture vessels by shaking, centrifuged down for 3 min at 2 000 revolutions per minute and 4° C. in a Heraeus Minifuge RF, resuspended in 20 ml of TYI-S-33 medium and counted in a hemocytometer chamber.
# (§4) For each measurement, in each case 8-10×10^5 amebae were provided in 12 ml of medium in Pyrex tubes fitted with a screw closure and the alkylphosphocholine was added in a volume of 660 μl. […] (w/v) ethanol in double-distilled water was used for dissolving hexadecylphosphocholine and octadecylphosphocholine, while double-distilled water on its own was used for all the other substances and the liposomal preparations. 5% ethanol or double-distilled water was correspondingly added to the control cultures. The concentrations of alkylphosphocholines employed were 100 μM, 50 μM, 20 μM, 10 μM and 5 μM. Six cultures were in each case prepared for each of the concentrations.
# (§5) The effect of the alkylphosphocholines was determined after 24 h and after 48 h. For this, in each case three of the cultures were shaken up and transferred into in each case three plastic centrifuge tubes. The amebae were centrifuged down for 5 min at 2 200 rpm and 4° C. and suspended in a final volume of 1 ml in a 1:1 mixture of Trypan blue (Sigma) and PBS. Each of the samples was then counted in the hemocytometer and the number of living and dead, stained blue due to having taken up the die, amebae was recorded.
# (§6) The results were analyzed using the “Probit” program (Wernsdorfer and Wernsdorfer, Mitt. Österr. Ges. Tropenmed. Parasitol. 17:221-228 (1995)).
# (§7) The tests were carried out as described above. The E. histolytica strains SFL-3 and HM-1:IMSS were tested. In each case six cultures were prepared for each concentration of alkylphosphocholine in pure or liposomal form. Three of the cultures were counted after […] and three further cultures were counted after 48 h. In each case two independent experiments were carried out for each of the two strains.
# [3] = tested on: Entamoeba histolytica SFL-3; assay: as above; type: cell-based; conditions: read-out: ED50 (the source's name)
# Protocol: as §2, §3, §4, §5, §6, §7
# Toxicity tests = type: in vivo; conditions: rats/mice; form not stated
# Source text: as §1
SMILES,Necessary administration quantities [1] [µmol],EC50 ([2]; day 1 (24 h)) [µM],EC50 ([2]; day 2 (48 h)) [µM],"EC50 ([3]; strain SFL-3, day 1 (24 h)) [µM]","EC50 ([3]; strain SFL-3, day 2 (48 h)) [µM]",Toxicity (Toxicity tests) [µmol]
CCCCCCCC/C=C\CCCCCCCCCCCCOP(=O)([O-])OCC[N+](C)(C)C [Erucyl-PC],100,–,–,–,–,–
"CCCCCCCC/C=C\CCCCCCCCCOP(=O)([O-])OCC[N+](C)(C)C [APC 10, (Z)-10-nonadecenylphosphocholine]",–,112,87,24,20,–
"CCCCCCCC/C=C\CCCCCCCCOP(=O)([O-])OCC[N+](C)(C)C [APC 9, oleylphosphocholine]",20,121,80,32,16,–
"CCCCCCCCCCCCCCCCCCOP(=O)([O-])OCC[N+](C)(C)C [APC 2, octadecylphosphocholine]",–,80,70,36,24,–
CCCCCCCCCCCCCCCCCCCOP(=O)([O-])OCC[N+](C)(C)C [Nonadecyl-PC],20,–,–,–,–,–
"CCCCCCCCCCCCCCCCOP(=O)([O-])OCC[N+](C)(C)C [APC 1, hexadecylphosphocholine]",60,94,83,88,50,90

# Source: US20030199476A1, “Medicament for the stimulation of leucopoiesis and treatment of tumour and protozoan diseases acarinosis and arthropod-borne diseases and a method for production thereof” (priority 2000, published 2003)
